Earlier results as cited in patent US20260218090A1, “A LOW-TEMPERATURE, CAUSTIC DISHWARE […]” (priority 2023, published 2026).
Where two headings read alike, the source gives them in different places.

Assays:
[1] = system: B. subtilis spores; settings: NaOH 1.0 M (40,000 ppm), cited from earlier work
[2] = system: P. aeruginosa; settings: NaOH 0.5 M (20,000 ppm); 22 °C; detection limit less than 3 organisms/mL; cited from earlier work
[3] = system: A. niger; settings: NaOH 0.5 M (20,000 ppm); 4 or 22 °C; detection limit less than 3 organisms/mL; cited from earlier work
[4] = system: S. aureus; settings: NaOH 0.1 M (4,000 ppm); 4 or 22 °C; detection limit less than 3 organisms/mL; cited from earlier work
[5] = system: E. coli; settings: NaOH 0.01 M (400 ppm); 4 or 22 °C; detection limit less than 3 organisms/mL; cited from earlier work
[6] = system: C. albicans; settings: NaOH 0.5 M (20,000 ppm); 4 or 22 °C; detection limit less than 3 organisms/mL; cited from earlier work

For `[Na+].[OH-]` [NaOH, sodium hydroxide], which “Time for reduction of the organism below the detection limit” value ([1]; 4 °C, detection limit less than 100 organisms/mL) is on record?
The value was 8 days.

What about the “Time for reduction of the organism below the detection limit” value ([1]; 22 °C, detection limit 10 organisms/mL) of the same compound?
Its value is 2 days.

What about the “Time for reduction of the organism below the detection limit” value [2] of the same compound?
Its value is 1 h.

And the “Time for reduction of the organism below the detection limit” value [3]?
Its value is 1 h.

What about the “Time for reduction of the organism below the detection limit” value [4] of the same compound?
Its value is 1 h.

And the “Time for reduction of the organism below the detection limit” value [5]?
Its value is 2 h.

What about the “Time for reduction of the organism below the detection limit” value [6] of the same compound?
Its value is 1 h.
